Measurements as given in US20230113037A1 (Bayer Aktiengesellschaft, priority 2019, published 2023).
Where two headings read alike, the source gives them in different places.

How the values were obtained:
[1] = target: T1, AHR (Homo sapiens, UniProt P35869); experiment: In vitro assay 1: antagonism in human cell line (AHR transactivation, firefly luciferase reporter, kynurenic acid prestimulated); format: cell-based; details: AHR Antagonism Human IC50 [M], firefly luciferase reporter
T1 construct: U87 MG glioblastoma cells (ATCC #HTB-14) endogenously expressing AHR; endogenous in cells; host or cells: U87 MG glioblastoma cells (ATCC #HTB-14)
T1 sequence (P35869 11-848): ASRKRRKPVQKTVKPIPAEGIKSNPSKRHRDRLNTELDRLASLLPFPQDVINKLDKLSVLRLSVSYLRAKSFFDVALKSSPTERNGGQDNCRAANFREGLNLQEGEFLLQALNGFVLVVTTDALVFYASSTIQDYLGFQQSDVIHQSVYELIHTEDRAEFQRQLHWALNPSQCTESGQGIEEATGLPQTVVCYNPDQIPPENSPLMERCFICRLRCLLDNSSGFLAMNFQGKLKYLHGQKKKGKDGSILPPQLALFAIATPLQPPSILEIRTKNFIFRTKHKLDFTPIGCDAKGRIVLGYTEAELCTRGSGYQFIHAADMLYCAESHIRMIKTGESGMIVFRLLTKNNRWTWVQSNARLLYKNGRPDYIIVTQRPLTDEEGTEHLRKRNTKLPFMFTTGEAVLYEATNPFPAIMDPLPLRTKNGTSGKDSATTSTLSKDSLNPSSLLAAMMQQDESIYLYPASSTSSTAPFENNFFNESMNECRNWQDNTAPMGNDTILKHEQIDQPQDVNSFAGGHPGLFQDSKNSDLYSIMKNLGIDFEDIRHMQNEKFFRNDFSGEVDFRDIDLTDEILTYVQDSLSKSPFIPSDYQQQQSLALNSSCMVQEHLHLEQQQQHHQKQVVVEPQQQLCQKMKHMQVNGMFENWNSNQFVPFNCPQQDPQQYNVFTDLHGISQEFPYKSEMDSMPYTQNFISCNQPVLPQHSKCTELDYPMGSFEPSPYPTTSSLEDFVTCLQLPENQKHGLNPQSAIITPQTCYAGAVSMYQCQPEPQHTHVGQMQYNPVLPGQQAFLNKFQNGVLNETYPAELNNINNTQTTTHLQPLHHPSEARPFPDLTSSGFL
In short: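 U87 MG + DRE-firefly/constitutive-Renilla stable reporters; kynurenic acid prestim; dual-luc read; Renilla = tox; normalized vs pos/neg controls (pos: 150 μM KYNA + 5 μM staurosporine).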

[2] = target: T2, AHR (Mus musculus, UniProt P30561); experiment: In vitro assay 3: antagonism in mouse cell line (AHR transactivation, firefly luciferase reporter, kynurenic acid prestimulated); format: cell-based
T2 sequence (P30561 1-848 P471L/N533S/M589L): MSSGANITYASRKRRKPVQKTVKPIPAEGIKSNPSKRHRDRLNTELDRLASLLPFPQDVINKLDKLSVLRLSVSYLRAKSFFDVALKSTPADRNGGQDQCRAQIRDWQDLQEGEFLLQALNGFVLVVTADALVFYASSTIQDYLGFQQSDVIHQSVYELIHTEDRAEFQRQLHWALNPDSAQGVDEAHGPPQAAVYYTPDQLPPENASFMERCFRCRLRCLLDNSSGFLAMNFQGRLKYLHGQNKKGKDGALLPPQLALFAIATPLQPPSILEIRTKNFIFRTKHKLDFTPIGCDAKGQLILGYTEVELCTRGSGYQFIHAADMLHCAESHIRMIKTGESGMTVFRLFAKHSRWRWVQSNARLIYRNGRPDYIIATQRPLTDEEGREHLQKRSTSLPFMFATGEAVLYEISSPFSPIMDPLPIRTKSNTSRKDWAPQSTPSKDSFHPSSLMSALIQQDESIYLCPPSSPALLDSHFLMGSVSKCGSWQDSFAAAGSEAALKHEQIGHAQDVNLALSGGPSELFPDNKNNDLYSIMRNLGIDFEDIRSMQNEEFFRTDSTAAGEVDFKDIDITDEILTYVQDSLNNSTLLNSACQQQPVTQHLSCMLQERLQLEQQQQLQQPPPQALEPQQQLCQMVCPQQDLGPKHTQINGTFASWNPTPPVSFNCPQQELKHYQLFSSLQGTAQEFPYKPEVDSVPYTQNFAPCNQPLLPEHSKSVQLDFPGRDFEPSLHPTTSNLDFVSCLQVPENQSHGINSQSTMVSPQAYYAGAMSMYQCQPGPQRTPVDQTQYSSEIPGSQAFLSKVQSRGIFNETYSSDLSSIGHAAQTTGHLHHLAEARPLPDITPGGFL
In short: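 Mouse cells stably carrying a DRE-driven AHR-inducible firefly luciferase reporter were prestimulated with the endogenous agonist kynurenic acid before compound addition. Luciferase read by SteadyGlo; cells without kynurenic acid served as full-inhibition control, with normalization to positive and negative controls. Repeat tests reported as mean or median.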

[3] = Hepa 1c1c7 cells, 200 μM kynurenic acid, 20 hours, firefly luciferase reporter, read-out: AHR Antagonism Mouse IC50
[4] = read-out: AHR Antagonism Mouse IC50, Hepa 1c1c7 cells, 200 μM kynurenic acid, 20 hours, firefly luciferase reporter

| Compound | IC50 [1] | IC50 [2, 3] | IC50 [2, 4] |
| --- | --- | --- | --- |
| C[C@@H](Nc1nc2c(Br)cccc2c2nc(-c3cnn(C)c3)nn12)C(=O)N1CCN(C)CC1 [Example 786, (2R)-2-{[7-bromo-2-(1-methyl-1H-pyrazol-4-yl)[1,2,4]triazolo[1,5-c]quinazolin-5-yl]amino}-1-(4-methylpiperazin-1-yl)propan-1-one] | 2.2e-08 M | 22.1 nM | – |
| COc1ccc(-c2nc3c4ccccc4nc(N[C@H](C)C(=O)NCCN(C)C)n3n2)cc1 [Example 787, N-[2-(dimethylamino)ethyl]-N^2-[2-(4-methoxyphenyl)[1,2,4]triazolo[1,5-c]quinazolin-5-yl]-D-alaninamide] | 2.26e-08 M | 38.2 nM | – |
| COc1ccc(-c2nc3c4cccc(Br)c4nc(N[C@H](C)C(=O)N4CCN(C)CC4)n3n2)cc1 [Example 788, (2R)-2-{[7-bromo-2-(4-methoxyphenyl)[1,2,4]triazolo[1,5-c]quinazolin-5-yl]amino}-1-(4-methylpiperazin-1-yl)propan-1-one] | 4.64e-10 M | 2.08 nM | – |
| COc1ccc(-c2nc3c4cccc(Br)c4nc(N[C@H](C)C(=O)NCC(C)(C)N)n3n2)cc1 [Example 789, N-(2-amino-2-methylpropyl)-N^2-[7-bromo-2-(4-methoxyphenyl)[1,2,4]triazolo[1,5-c]quinazolin-5-yl]-D-alaninamide] | 4.3e-08 M | 17.1 nM | – |
| C[C@@H](Nc1nc2c(Br)cccc2c2nc(-c3cnn(C)c3)nn12)C(=O)NCC(C)(C)N [Example 790, N-(2-amino-2-methylpropyl)-N^2-[7-bromo-2-(1-methyl-1H-pyrazol-4-yl)[1,2,4]triazolo[1,5-c]quinazolin-5-yl]-D-alaninamide] | 4.14e-07 M | 402 nM | – |
| CC[C@@H](Nc1nc2ccccc2c2nc(-c3cn(C)nn3)nn12)C(N)=O [Example 793, (2R)-2-{[2-(1-methyl-1H-1,2,3-triazol-4-yl)[1,2,4]triazolo[1,5-c]quinazolin-5-yl]amino}butanamide] | 2.94e-06 M | – | 694 nM |
| CCCCNC(=O)[C@@H](C)Nc1nc2c(Br)cccc2c2nc(-c3cnn(C)c3)nn12 [Example 794, N^2-[7-bromo-2-(1-methyl-1H-pyrazol-4-yl)[1,2,4]triazolo[1,5-c]quinazolin-5-yl]-N-butyl-D-alaninamide] | 1.76e-08 M | 21.2 nM | – |
| CCCNC(=O)[C@H](C)Nc1nc2c(Br)cccc2c2nc(-c3cnn(C)c3)nn12 [Example 795, N^2-[7-bromo-2-(1-methyl-1H-pyrazol-4-yl)[1,2,4]triazolo[1,5-c]quinazolin-5-yl]-N-propyl-L-alaninamide] | 2.46e-07 M | 3130 nM | – |
| CCCNC(=O)[C@@H](C)Nc1nc2c(Br)cccc2c2nc(-c3cnn(C)c3)nn12 [Example 796, N^2-[7-bromo-2-(1-methyl-1H-pyrazol-4-yl)[1,2,4]triazolo[1,5-c]quinazolin-5-yl]-N-propyl-D-alaninamide] | 1.37e-08 M | 20.2 nM | – |
| CCCNC(=O)[C@@H](CC)Nc1nc2c(Br)cccc2c2nc(-c3ccc(Cl)cc3OC(F)F)nn12 [Example 797, (2R)-2-({7-bromo-2-[4-chloro-2-(difluoromethoxy)phenyl][1,2,4]triazolo[1,5-c]quinazolin-5-yl}amino)-N-propylbutanamide] | 1.58e-09 M | 0.963 nM | – |
| CCNC(=O)[C@@H](CC)Nc1nc2c(Br)cccc2c2nc(-c3ccc(Cl)cc3OC(F)F)nn12 [Example 798, (2R)-2-({7-bromo-2-[4-chloro-2-(difluoromethoxy)phenyl][1,2,4]triazolo[1,5-c]quinazolin-5-yl}amino)-N-ethylbutanamide] | 7.57e-10 M | 0.811 nM | – |
| CC[C@@H](Nc1nc2c(Br)cccc2c2nc(-c3ccnn3C)nn12)C(N)=O [Example 800, (2R)-2-{[7-bromo-2-(1-methyl-1H-pyrazol-5-yl)[1,2,4]triazolo[1,5-c]quinazolin-5-yl]amino}butanamide] | 2.37e-09 M | – | 1.69 nM |
| CC[C@H](Nc1nc2c(Br)cccc2c2nc(-c3ccnn3C)nn12)C(N)=O [Example 801, (2S)-2-{[7-bromo-2-(1-methyl-1H-pyrazol-5-yl)[1,2,4]triazolo[1,5-c]quinazolin-5-yl]amino}butanamide] | 1.04e-07 M | – | 40.5 nM |

Second part, led by results:

| IC50 [1] | IC50 [2, 3] | Compound | IC50 [2, 4] |
| --- | --- | --- | --- |
| 4.21e-08 M | 18.5 nM | CCNC(=O)[C@H](CC)Nc1nc2c(Br)cccc2c2nc(-c3ccc(Cl)cc3OC(F)F)nn12 [Example 799, (2S)-2-({7-bromo-2-[4-chloro-2-(difluoromethoxy)phenyl][1,2,4]triazolo[1,5-c]quinazolin-5-yl}amino)-N-ethylbutanamide] | – |
| 4.76e-08 M | 12.5 nM | CCCNC(=O)[C@H](C)Nc1nc2c(Br)cccc2c2nc(-c3ccc(Cl)cc3OC(F)F)nn12 [Example 802, N^2-{7-bromo-2-[4-chloro-2-(difluoromethoxy)phenyl][1,2,4]triazolo[1,5-c]quinazolin-5-yl}-N-propyl-L-alaninamide] | – |
| 6.42e-09 M | 3 nM | CCCCNC(=O)[C@@H](CC)Nc1nc2c(Br)cccc2c2nc(-c3ccc(Cl)cc3OC(F)F)nn12 [Example 804, (2R)-2-({7-bromo-2-[4-chloro-2-(difluoromethoxy)phenyl][1,2,4]triazolo[1,5-c]quianzolin-5-yl}amino)-N-butylbutanamide] | – |
| 1.9e-07 M | 70.4 nM | CC[C@H](Nc1nc2c(C(F)(F)F)cccc2c2nc(-c3ccnn3C)nn12)C(N)=O [Example 805, (2S)-2-{[2-(1-methyl-1H-pyrazol-5-yl)-7-(trifluoromethyl)[1,2,4]triazolo[1,5-c]quinazolin-5-yl]amino}butanamide] | – |
| 3.49e-09 M | 1.14 nM | CC[C@@H](Nc1nc2c(C(F)(F)F)cccc2c2nc(-c3ccnn3C)nn12)C(N)=O [Example 806, (2R)-2-{[2-(1-methyl-1H-pyrazol-5-yl)-7-(trifluoromethyl)[1,2,4]triazolo[1,5-c]quinazolin-5-yl]amino}butanamide] | – |
| 1.1e-07 M | 63.8 nM | Cn1nccc1-c1nc2c3cccc(C(F)(F)F)c3nc(N[C@H]3CCCCNC3=O)n2n1 [Example 807, (3S)-3-{[2-(1-methyl-1H-pyrazol-5-yl)-7-(trifluoromethyl)[1,2,4]triazolo[1,5-c]quinazolin-5-yl]amino}azepan-2-one] | – |
| 8.12e-10 M | 1.16 nM | Cn1nccc1-c1nc2c3cccc(C(F)(F)F)c3nc(N[C@@H]3CCCCNC3=O)n2n1 [Example 808, (3R)-3-{[2-(1-methyl-1H-pyrazol-5-yl)-7-(trifluoromethyl)[1,2,4]triazolo[1,5-c]quinazolin-5-yl]amino}azepan-2-one] | – |
| 1.82e-08 M | 9.05 nM | COc1ccc(-c2nc3c4cccc(Br)c4nc(N[C@H](C)C(=O)NCCCN(C)C)n3n2)cc1 [Example 809, N^2-[7-bromo-2-(4-methoxyphenyl)[1,2,4]triazolo[1,5-c]quinazolin-5-yl]-N-[3-(dimethylamino)propyl]-D-alaninamide] | – |
